Reference: patent US8247377B2, “Non-steroidal glucocorticoid inhibitors and their use in treating inflammation, allergy and auto-immune conditions” (Glaxo Group Limited, priority 2006, dated 2012)

Tested on: NFκB
Assay: NFκB agonist assay in A549 SPAP cells;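 as to average maximum asymptote in the NFkB assay: maximum inhibition of the TNFα-induced NFκB-driven signal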
Assay type: cell-based
Details: Homo sapiens; for Emax: A549, A549 SPAP cells, >85% = full agonist, ≧20% = partial or full agonist, read-out: average maximum asymptote in the NFkB assay; for IC50: A549 SPAP cells, TNFα 3.2 ng/ml, read-out: pIC50 for the NFkB assay (converted)
Method in brief: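 A549 cells stably carrying an ELAM/NFκB-driven SPAP reporter were pre-incubated 1 h at 37° C with compound, then stimulated with TNFα (3.2 ng/ml final) for 15 h. SPAP activity read colorimetrically with pNPP at 405 nm after ~1 h; pIC50 estimated from dose-response curves.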

| Compound | Emax [%] | IC50 [µM] |
| --- | --- | --- |
| Nc1c(C(=O)NCC(O)(CNC(=O)c2c(C(F)F)cccc2C(F)F)C(F)(F)F)cnn1-c1ccc(F)cc1 (single isomer, unassigned) [Example 43 Enantiomer 1, 5-Amino-N-{2-[({[2,6-bis(difluoromethyl)phenyl]carbonyl}amino)methyl]-3,3,3-trifluoro-2-hydroxypropyl}-1-(4-fluorophenyl)-1H-pyrazole-4-carboxamide] | ≥ 20 | < 1 |
| Nc1c(C(=O)NCC(O)(CNC(=O)c2c(Cl)cccc2C(F)(F)F)C(F)(F)F)cnn1-c1ccc(F)cc1 (single isomer, unassigned) [Example 44 Enantiomer 1, 5-Amino-N-{2-[({[2-chloro-6-(trifluoromethyl)phenyl]carbonyl}amino)methyl]-3,3,3-trifluoro-2-hydroxypropyl}-1-(4-fluorophenyl)-1H-pyrazole-4-carboxamide] | ≥ 20 | < 1 |
| Nc1c(C(=O)NCC(O)(CNC(=O)c2c(Br)cccc2C(F)(F)F)C(F)(F)F)cnn1-c1ccc(F)cc1 (single isomer, unassigned) [Example 45 Enantiomer 1, 5-Amino-N-{2-[({[2-bromo-6-(trifluoromethyl)phenyl]carbonyl}amino)methyl]-3,3,3-trifluoro-2-hydroxypropyl}-1-(4-fluorophenyl)-1H-pyrazole-4-carboxamide] | ≥ 20 | < 1 |
| Nc1c(C(=O)NCC(O)(CNC(=O)c2c(F)cccc2OC(F)F)C(F)(F)F)cnn1-c1ccc(F)cc1 (single isomer, unassigned) [Example 48 Enantiomer 1, 5-Amino-N-(2-{[({2-[(difluoromethyl)oxy]-6-fluorophenyl}carbonyl)amino]methyl}-3,3,3-trifluoro-2-hydroxypropyl)-1-(4-fluorophenyl)-1H-pyrazole-4-carboxamide] | ≥ 20 | < 1 |
